Source: patent US11180474B2 (BRISTOL-MYERS SQUIBB COMPANY, priority 2016, dated 2021)
Where a name gives a salt, the structure may show the parent alone.

Molecular target: T1, human TLR9 (Homo sapiens, UniProt Q9NR96)
T1 construct: host or cells: HEK-Blue cells
T1 sequence (Q9NR96 26-1032): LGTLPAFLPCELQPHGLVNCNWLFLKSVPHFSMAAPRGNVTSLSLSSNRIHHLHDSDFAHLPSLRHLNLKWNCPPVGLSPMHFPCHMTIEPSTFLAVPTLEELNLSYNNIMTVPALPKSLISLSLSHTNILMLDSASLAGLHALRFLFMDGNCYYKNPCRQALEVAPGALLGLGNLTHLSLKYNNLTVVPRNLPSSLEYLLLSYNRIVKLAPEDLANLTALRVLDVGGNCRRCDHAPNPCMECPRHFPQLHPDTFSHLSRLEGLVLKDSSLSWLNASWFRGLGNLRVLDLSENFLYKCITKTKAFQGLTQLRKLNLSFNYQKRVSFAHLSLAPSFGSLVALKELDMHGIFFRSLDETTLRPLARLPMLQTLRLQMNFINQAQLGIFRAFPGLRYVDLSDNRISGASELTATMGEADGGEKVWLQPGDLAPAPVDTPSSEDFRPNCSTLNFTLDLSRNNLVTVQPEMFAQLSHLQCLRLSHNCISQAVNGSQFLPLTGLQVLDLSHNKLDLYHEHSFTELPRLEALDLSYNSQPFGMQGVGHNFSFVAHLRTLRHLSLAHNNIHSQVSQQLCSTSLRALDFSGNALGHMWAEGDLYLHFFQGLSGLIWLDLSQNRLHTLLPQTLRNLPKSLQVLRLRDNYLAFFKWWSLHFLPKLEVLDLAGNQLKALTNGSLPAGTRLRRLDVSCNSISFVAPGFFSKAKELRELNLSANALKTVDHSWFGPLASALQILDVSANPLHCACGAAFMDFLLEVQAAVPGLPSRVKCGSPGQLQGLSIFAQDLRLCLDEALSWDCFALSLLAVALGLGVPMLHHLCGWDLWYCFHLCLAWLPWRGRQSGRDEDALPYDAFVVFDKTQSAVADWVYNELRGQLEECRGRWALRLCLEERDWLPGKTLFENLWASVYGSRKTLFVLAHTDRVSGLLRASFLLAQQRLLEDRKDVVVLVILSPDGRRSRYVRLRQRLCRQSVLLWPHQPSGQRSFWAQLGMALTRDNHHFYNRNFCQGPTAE
Assay: TLR9 inhibition reporter assay (HEK-Blue cells, SEAP reporter, ODN2006 stimulation)
Type: cell-based
Conditions: HEK-Blue cells overexpressing human TLR9, ODN2006 5 nM
In short: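 Dose–response from 0.05 nM to 50 μM was run in HEK-Blue human TLR7, TLR8 and TLR9 reporter cells. After 30 min at room temperature with compound, ligand was added (TLR7 gardiquimod 7.5 μM; TLR8 R848 15.9 μM; TLR9 ODN2006 5 nM) and SEAP measured next day, at 22 h.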

IC50 | Structure (SMILES)
2290 nM | CNCCN1CCC(c2cc3c(C(C)C)c(-c4ccc(OC)c(OC)c4)[nH]c3cc2C)CC1 [Example 207, 2-(4-(2-(3,4-dimethoxyphenyl)-3-isopropyl-6-methyl-1H-indol-5-yl)piperidin-1-yl)-N-methylethan-1-amine]
402 nM | CCc1c(-c2ccc(OC)c(OC)c2)[nH]c2ccc(C3CCN(C(=O)CNC4CCC(N(C)C)CC4)CC3)cc12 (stereo not shown) [Example 162, 1-(4-(2-(3,4-dimethoxyphenyl)-3-ethyl-1H-indol-5-yl)piperidin-1-yl)-2-((4-(dimethylamino)cyclohexyl)amino)ethan-1-one]
2240 nM | CCc1c(-c2ccc(OC)c(OC)c2)[nH]c2ccc(C3CCN(C(=O)CN4CC[C@@H](O)C4)CC3)cc12 [Example 173, (R)-1-(4-(2-(3,4-dimethoxyphenyl)-3-ethyl-1H-indol-5-yl)piperidin-1-yl)-2-(3-hydroxypyrrolidin-1-yl)ethan-1-one]
2270 nM | CCc1c(-c2ccc(OC)c(OC)c2)[nH]c2ccc(C3CCN(C(=O)CN(C)C)CC3)cc12 [Example 181, 1-(4-(2-(3,4-dimethoxyphenyl)-3-ethyl-1H-indol-5-yl)piperidin-1-yl)-2-(dimethylamino) ethanone]
2000 nM | CCN(CC)C(=O)CCN(C)CC(=O)N1CCC(c2ccc3[nH]c(-c4ccc(OC)c(OC)c4)c(C(C)C)c3c2)CC1 [Example 204, 3-((2-(4-(2-(3,4-dimethoxyphenyl)-3-isopropyl-1H-indol-5-yl)piperidin-1-yl)-2-oxoethyl)(methyl)amino)-N,N-diethylpropanamide]
≥ 50000 nM | CCc1c(-c2ccc(OC)c(OC)c2)[nH]c2ccc(C3CCN(C(=O)CN4CCCC(C(=O)O)C4)CC3)cc12 (racemic) [Example 176, 1-(2-(4-(2-(3,4-dimethoxyphenyl)-3-ethyl-1H-indol-5-yl)piperidin-1-yl)-2-oxoethyl)piperidine-3-carboxylic acid]
170 nM | CCc1c(-c2ccc(OC)c(OC)c2)[nH]c2ccc(C3CCN(C4CCN(CC(C)C)CC4)CC3)cc12 [Example 123, 2-(3,4-dimethoxyphenyl)-3-ethyl-5-(1′-isobutyl-[1,4′-bipiperidin]-4-yl)-1H-indole-di-trifluoroacetic acid]
830 nM | CNCCN1CCC(c2ccc3[nH]c(-c4ccc(OC)c(OC)c4)c(CC(C)C)c3c2)CC1 [Example 116, trifluoroacetic acid]
747 nM | CCc1c(-c2ccc(OC)c(OC)c2)[nH]c2ccc(C3CCN(C(=O)CN4CCCC(C(=O)N(CC)CC)C4)CC3)cc12 (single isomer, unassigned) [Example 179, 1-(2-(4-(2-(3,4-dimethoxyphenyl)-3-ethyl-1H-indol-5-yl)piperidin-1-yl)-2-oxoethyl)-N,N-diethylpiperidine-3-carboxamide]
870 nM | CCc1c(-c2ccc(OC)c(OC)c2)[nH]c2ccc(C3CCN(C(=O)CN4CCCC(C(=O)N(CC)CC)C4)CC3)cc12 (stereo not shown) [Example 168, 1-(2-(4-(2-(3,4-dimethoxyphenyl)-3-ethyl-1H-indol-5-yl)piperidin-1-yl)-2-oxoethyl)-N,N-diethylpiperidine-3-carboxamide]
3380 nM | CCc1c(-c2ccc(OC)c(OC)c2)[nH]c2ccc(C3CCN(C(=O)CNCCO)CC3)cc12 [Example 159, 1-(4-(2-(3,4-dimethoxyphenyl)-3-ethyl-1H-indol-5-yl)piperidin-1-yl)-2-((2-hydroxyethyl)amino) ethan-1-one]
2070 nM | CCc1c(-c2ccc(OC)c(OC)c2)[nH]c2ccc(C3CCN(C(=O)C4CCCNC4)CC3)cc12 (stereo not shown) [Example 184, (4-(2-(3,4-dimethoxyphenyl)-3-ethyl-1H-indol-5-yl)piperidin-1-yl)(piperidin-3-yl)methanone]
14100 nM | CCc1c(-c2ccc(OC)c(OC)c2)[nH]c2ccc(C3CCN(C(=O)C(C)(C)OC(C)=O)CC3)cc12 [Example 175, 1-(4-(2-(3,4-dimethoxyphenyl)-3-ethyl-1H-indol-5-yl)piperidin-1-yl)-2-methyl-1-oxopropan-2-yl acetate]
5010 nM | COc1ccc(-c2[nH]c3ccc(C4CCNCC4)cc3c2C(C)C)cc1OC [Example 194, 2-(3,4-dimethoxyphenyl)-3-isopropyl-5-(piperidin-4-yl)-1H-indole hydrochloride]
≥ 50000 nM | CCc1c(-c2ccc(OC)c(OC)c2)[nH]c2ccc(C3CCN(CC(C)C(F)(F)F)CC3)cc12 (stereo not shown) [Example 180, 2-(3,4-dimethoxyphenyl)-3-ethyl-5-(1-(3,3,3-trifluoro-2-methylpropyl)piperidin-4-yl)-1H-indole]

Second part, the compound before the results:

Structure (SMILES) | IC50
COc1ccc(-c2[nH]c3cc(C)c(C4CCN(C5CCN(C(C)C)CC5)CC4)cc3c2C(C)C)cc1OC [Example 206, 2-(3,4-dimethoxyphenyl)-3-isopropyl-5-(1′-isopropyl-[1,4′-bipiperidin]-4-yl)-6-methyl-1H-indole di trifluoroacetic acid] | 1000 nM
CCc1c(-c2ccc(OC)c(OC)c2)[nH]c2ccc(C3CCN(C4CCN(Cc5cnc(C)[nH]5)CC4)CC3)cc12 [Example 153, 2-(3,4-dimethoxyphenyl)-3-ethyl-5-(1′-((2-methyl-1H-imidazol-5-yl)methyl)-[1,4′-bipiperidin]-4-yl)-1H-indole] | 547 nM
COc1ccc(-c2[nH]c3ccc(C4CCN(C5CCN(Cc6ccccc6)CC5)CC4)cc3c2C)cc1OC [Example 9, 5-(1′-benzyl-[1,4′-bipiperidin]-4-yl)-2-(3,4-dimethoxyphenyl)-3-methyl-1H-indole] | 360 nM
CCc1c(-c2ccc(OC)c(OC)c2)[nH]c2ccc(C3CCN(C4CCN(Cc5ccn(C)n5)CC4)CC3)cc12 [Example 133, 2-(3,4-dimethoxyphenyl)-3-ethyl-5-(1′-((1-methyl-1H-pyrazol-3-yl)methyl)-[1,4′-bipiperidin]-4-yl)-1H-indole] | 657 nM
CCc1c(-c2ccc(OC)c(OC)c2)[nH]c2ccc(C3CCN(C4CCN(Cc5cc6ccccc6[nH]5)CC4)CC3)cc12 [Example 128, 5-(1′-((1H-indol-2-yl)methyl)-[1,4′-bipiperidin]-4-yl)-2-(3,4-dimethoxyphenyl)-3-ethyl-1H-indole] | 947 nM
CCc1c(-c2ccc(OC)c(OC)c2)[nH]c2ccc(C3CCN(C4CCN(Cc5cc6ccccc6n5C)CC4)CC3)cc12 [Example 137, 2-(3,4-dimethoxyphenyl)-3-ethyl-5-(1′-((1-methyl-1H-indol-2-yl)methyl)-[1,4′-bipiperidin]-4-yl)-1H-indole] | 2600 nM
CCc1c(-c2ccc(OC)c(OC)c2)[nH]c2ccc(C3CCN(C4CCN(Cc5cnc(C)o5)CC4)CC3)cc12 [Example 124, 5-((4-(2-(3,4-dimethoxyphenyl)-3-ethyl-1H-indol-5-yl)-[1,4′-bipiperidin]-1′-yl)methyl)-2-methyloxazole] | 1280 nM
CCc1c(-c2ccc(OC)c(OC)c2)[nH]c2ccc(C3CCN(C4CCN(Cc5c[nH]cn5)CC4)CC3)cc12 [Example 125, 5-(1′-((1H-imidazol-4-yl)methyl)-[1,4′-bipiperidin]-4-yl)-2-(3,4-dimethoxyphenyl)-3-ethyl-1H-indole] | 410 nM
COc1ccc(-c2[nH]c3ccc(C4CCN(C5CCN(CC(C)C)CC5)CC4)cc3c2C)cc1OC [Example 6, 2-(3,4-dimethoxyphenyl)-5-(1′-isobutyl-[1,4′-bipiperidin]-4-yl)-3-methyl-1H-indole] | 221 nM
CCc1c(-c2ccc(OC)c(OC)c2)[nH]c2ccc(C3CCN(C4CCN(Cc5cc(C)nn5C)CC4)CC3)cc12 [Example 132, 2-(3,4-dimethoxyphenyl)-5-(1′-((1,3-dimethyl-1H-pyrazol-5-yl)methyl)-[1,4′-bipiperidin]-4-yl)-3-ethyl-1H-indole] | 695 nM
CCc1c(-c2ccc(OC)c(OC)c2)[nH]c2ccc(C3CCN(C4CCN(Cc5ccc(C)s5)CC4)CC3)cc12 [Example 140, 2-(3,4-dimethoxyphenyl)-3-ethyl-5-(1′-((5-methylthiophen-2-yl)methyl)-[1,4′-bipiperidin]-4-yl)-1H-indole] | 479 nM
CCc1c(-c2ccc(OC)c(OC)c2)[nH]c2ccc(C3CCN(C4CCN(Cc5coc(C)n5)CC4)CC3)cc12 [Example 126, 4-((4-(2-(3,4-dimethoxyphenyl)-3-ethyl-1H-indol-5-yl)-[1,4′-bipiperidin]-1′-yl)methyl)-2-methyloxazole] | 481 nM
CCc1c(-c2ccc(OC)c(OC)c2)[nH]c2ccc(C3CCN(C4CCN(CC)CC4)CC3)cc12 [Example 149, 2-(3,4-dimethoxyphenyl)-3-ethyl-5-(1′-ethyl-[1,4′-bipiperidin]-4-yl)-1H-indole] | 152 nM
